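Five compound concentrations were applied to cells in 96-well plates for 48 hours; endpoints were derived by simple linear interpolation of the resulting dose-response curve. GI50: concentration for 50% inhibition of growth. TGI denotes the concentration required for complete inhibition of growth.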
Key:
Test in all cases: NCI tumour cell line growth inhibition, 48 h
[1] = tested on: A498 renal
[2] = tested on: A549 NSCLC
[3] = tested on: ACHN renal
[4] = tested on: CAKI-1 renal
[5] = tested on: CCRF-CEM leukemia
[6] = tested on: COLO 205 colon
[7] = tested on: DU-145 prostate
[8] = tested on: EKVX NSCLC
[9] = tested on: HCC-2998 colon
[10] = tested on: HCT-116 colon
[11] = tested on: HCT-15 colon
[12] = tested on: HL-60(TB) leukemia
[13] = tested on: HOP-62 NSCLC
[14] = tested on: HOP-92 NSCLC
[15] = tested on: HS 578T breast
[16] = tested on: HT29 colon
[17] = tested on: IGROV1 ovarian
[18] = tested on: K-562 leukemia
[19] = tested on: KM12 colon
[20] = tested on: LOX IMVI melanoma
[21] = tested on: M14 melanoma
[22] = tested on: MALME-3M melanoma
[23] = tested on: MCF7 breast
[24] = tested on: MDA-MB-231 breast
[25] = tested on: MDA-MB-435
[26] = tested on: MOLT-4 leukemia
[27] = tested on: NCI-H226 lung
[28] = tested on: NCI-H23 lung
[29] = tested on: NCI-H460 lung
[30] = tested on: NCI-H522 lung
[31] = tested on: NCI/ADR-RES ovarian
[32] = tested on: OVCAR-3 ovarian
[33] = tested on: OVCAR-4 ovarian
[34] = tested on: OVCAR-5 ovarian
[35] = tested on: OVCAR-8 ovarian
[36] = tested on: PC-3 prostate
[37] = tested on: RPMI-8226 leukemia
[38] = tested on: RXF 393 renal
[39] = tested on: SF-268 CNS
[40] = tested on: SF-295 CNS
[41] = tested on: SF-539 CNS
[42] = tested on: SK-MEL-2 melanoma
[43] = tested on: SK-MEL-28 melanoma
[44] = tested on: SK-MEL-5 melanoma
[45] = tested on: SN12C renal
[46] = tested on: SNB-19 CNS
[47] = tested on: SNB-75 CNS
[48] = tested on: SR leukemia
[49] = tested on: SW-620 colon
[50] = tested on: T-47D breast
[51] = tested on: TK-10 renal
[52] = tested on: U251 CNS
[53] = tested on: UACC-257 melanoma
[54] = tested on: UACC-62 melanoma
[55] = tested on: UO-31 renal
[56] = tested on: SK-OV-3 ovarian
[57] = tested on: 786-0 renal
[58] = tested on: BT-549 breast

O=C(Nc1cccc(-n2ccc3c(NC(=O)c4ccccc4)ncnc32)c1)Nc1ccc(Cl)c(C(F)(F)F)c1 gave a GI50 [1] of 2.65 µM, a TGI [1] of 9.51 µM and a GI50 [2] of 2.11 µM. It also gave a TGI [2] of 7.35 µM, a GI50 [3] of 1.59 µM and a TGI [3] of 7.38 µM. It also gave a GI50 [4] of 2.04 µM, a TGI [4] of 10.9 µM and a GI50 [5] of 0.655 µM. The TGI [5] was 9.04 µM, the GI50 [6] was 2.67 µM and the TGI [6] was 8.36 µM. It also gave a GI50 [7] of 4.52 µM, a TGI [7] of 11.3 µM and a GI50 [8] of 2.71 µM. For the same molecule, the TGI [8] was 9.84 µM, the GI50 [9] was 4.2 µM and the TGI [9] was 14.9 µM. The GI50 [10] was 1.85 µM, the TGI [10] was 6.66 µM and the GI50 [11] was 2.51 µM. The TGI [11] was 10.2 µM, the GI50 [12] was 1.87 µM and the TGI [12] was 5.28 µM. For the same molecule, the GI50 [13] was 5.62 µM, the TGI [13] was 11.8 µM and the GI50 [14] was 0.556 µM. For the same molecule, the TGI [14] was 4.31 µM, the GI50 [15] was 2.55 µM and the TGI [15] was 22.6 µM. It also gave a GI50 [16] of 1.87 µM, a TGI [16] of 7.87 µM and a GI50 [17] of 2.92 µM. For the same molecule, the TGI [17] was 17.1 µM, the GI50 [18] was 1.61 µM and the TGI [18] was 50 µM. The GI50 [19] was 1.95 µM, the TGI [19] was 8.16 µM and the GI50 [20] was 2.82 µM. For the same molecule, the TGI [20] was 15 µM, the GI50 [21] was 1.75 µM and the TGI [21] was 5.98 µM. For the same molecule, the GI50 [22] was 1.99 µM, the TGI [22] was 9.01 µM and the GI50 [23] was 1.49 µM. The TGI [23] was 6.14 µM, the GI50 [24] was 2.06 µM and the TGI [24] was 7.94 µM. The GI50 [25] was 1.44 µM, the TGI [25] was 5.6 µM and the GI50 [26] was 1.77 µM. It also gave a TGI [26] of 12.7 µM, a GI50 [27] of 5.27 µM and a TGI [27] of 11.5 µM. The GI50 [28] was 1.97 µM, the TGI [28] was 18.7 µM and the GI50 [29] was 2.13 µM. It also gave a TGI [29] of 9.88 µM, a GI50 [30] of 1.36 µM and a TGI [30] of 6.31 µM. It also gave a GI50 [31] of 3.73 µM, a TGI [31] of 32 µM and a GI50 [32] of 2.62 µM. It also gave a TGI [32] of 8.9 µM, a GI50 [33] of 2.36 µM and a TGI [33] of 8.18 µM. It also gave a GI50 [34] of 2.38 µM, a TGI [34] of 9.69 µM and a GI50 [35] of 1.95 µM. For the same molecule, the TGI [35] was 6.67 µM, the GI50 [36] was 1.25 µM and the TGI [36] was 5.93 µM. For the same molecule, the GI50 [37] was 1.02 µM, the TGI [37] was 2.8 µM and the GI50 [38] was 1.68 µM. The TGI [38] was 6.66 µM, the GI50 [39] was 3.69 µM and the TGI [39] was 10.5 µM. It also gave a GI50 [40] of 1.43 µM, a TGI [40] of 7.24 µM and a GI50 [41] of 1.98 µM. For the same molecule, the TGI [41] was 9.91 µM, the GI50 [42] was 1.18 µM and the TGI [42] was 3.64 µM. For the same molecule, the GI50 [43] was 2.75 µM, the TGI [43] was 9.44 µM and the GI50 [44] was 2.2 µM. For the same molecule, the TGI [44] was 8.16 µM, the GI50 [45] was 3.09 µM and the TGI [45] was 9.86 µM. It also gave a GI50 [46] of 4.41 µM, a TGI [46] of 10.8 µM and a GI50 [47] of 0.954 µM. The TGI [47] was 9.15 µM, the GI50 [48] was 2.35 µM and the TGI [48] was 15 µM. For the same molecule, the GI50 [49] was 3.26 µM, the TGI [49] was 10.1 µM and the GI50 [50] was 2.61 µM. It also gave a TGI [50] of 9.85 µM, a GI50 [51] of 2.14 µM and a TGI [51] of 7.75 µM. It also gave a GI50 [52] of 2.09 µM, a TGI [52] of 8.39 µM and a GI50 [53] of 2.67 µM. The TGI [53] was 8.43 µM, the GI50 [54] was 1.77 µM and the TGI [54] was 7.52 µM. For the same molecule, the GI50 [55] was 3.44 µM and the TGI [55] was 10.9 µM.

Molecule CCCS(=O)(=O)Nc1ccc(F)c(C(=O)c2c[nH]c3ncc(-c4ccc(OCCCC5CCCCN5)nc4)cc23)c1F (stereo not given) has a GI50 [2] greater than 100 µM, a TGI [2] greater than 100 µM and a GI50 [3] of 16.9 µM. The TGI [3] was greater than 100 µM, the GI50 [8] was greater than 100 µM and the TGI [8] was greater than 100 µM. For the same molecule, the GI50 [9] was greater than 100 µM, the TGI [9] was greater than 100 µM and the GI50 [11] was greater than 100 µM. For the same molecule, the TGI [11] was greater than 100 µM, the GI50 [15] was 0.493 µM and the TGI [15] was 2.82 µM. For the same molecule, the GI50 [17] was 0.865 µM, the TGI [17] was greater than 100 µM and the GI50 [25] was 0.03 µM. For the same molecule, the TGI [25] was greater than 100 µM, the GI50 [31] was greater than 100 µM and the TGI [31] was greater than 100 µM. It also gave a GI50 [35] of 9.63 µM, a TGI [35] greater than 100 µM and a GI50 [40] of 3.97 µM. It also gave a TGI [40] greater than 100 µM, a GI50 [56] of 0.875 µM and a TGI [56] greater than 100 µM. For the same molecule, the GI50 [45] was 2.14 µM, the TGI [45] was greater than 100 µM and the GI50 [50] was 1.28 µM. It also gave a TGI [50] of 10.7 µM, a GI50 [51] of 7.79 µM and a TGI [51] greater than 100 µM. For the same molecule, the GI50 [53] was 0.0136 µM, the TGI [53] was 0.0967 µM and the GI50 [55] was greater than 100 µM. For the same molecule, the TGI [55] was greater than 100 µM.

Work on O=C1C(Cl)=C(Nc2ccc(S(=O)(=O)c3ccc(NC4=C(Cl)C(=O)c5ccccc5C4=O)cc3)cc2)C(=O)c2ccccc21 yielded a GI50 [57] of 1.86 µM, a TGI [57] of 3.29 µM and a GI50 [1] of 3.72 µM. The TGI [1] was 16.2 µM, the GI50 [2] was 5.71 µM and the TGI [2] was 38.8 µM. The GI50 [3] was 1.31 µM, the TGI [3] was 2.69 µM and the GI50 [58] was 1.65 µM. For the same molecule, the TGI [58] was 3.24 µM, the GI50 [4] was 1.38 µM and the TGI [4] was 2.74 µM. For the same molecule, the GI50 [5] was 1.9 µM, the TGI [5] was greater than 100 µM and the GI50 [6] was 1.74 µM. The TGI [6] was 3.22 µM, the GI50 [7] was 1.91 µM and the TGI [7] was 3.69 µM. The GI50 [8] was 2.36 µM, the TGI [8] was 9.07 µM and the GI50 [9] was 2.82 µM. It also gave a TGI [9] of 6.33 µM, a GI50 [10] of 1.2 µM and a TGI [10] of 2.49 µM. For the same molecule, the GI50 [12] was 3.24 µM, the TGI [12] was 8.62 µM and the GI50 [13] was 2.14 µM. For the same molecule, the TGI [13] was 6.52 µM, the GI50 [14] was 1.96 µM and the TGI [14] was 3.44 µM. The GI50 [15] was 1.82 µM, the TGI [15] was 5.85 µM and the GI50 [16] was 2 µM. For the same molecule, the TGI [16] was 5.02 µM, the GI50 [18] was 1.63 µM and the TGI [18] was 5.24 µM. It also gave a GI50 [19] of 2.17 µM, a TGI [19] of 5.38 µM and a GI50 [20] of 1.49 µM. The TGI [20] was 3.1 µM, the GI50 [21] was 1.82 µM and the TGI [21] was 3.26 µM. For the same molecule, the GI50 [22] was 2.13 µM, the TGI [22] was 3.88 µM and the GI50 [24] was 1.61 µM. The TGI [24] was 3.51 µM, the GI50 [26] was 1.87 µM and the TGI [26] was 5.86 µM. For the same molecule, the GI50 [27] was 3.1 µM, the TGI [27] was 18.6 µM and the GI50 [28] was 1.81 µM. The TGI [28] was 3.63 µM, the GI50 [29] was 2.36 µM and the TGI [29] was 6.53 µM. The GI50 [31] was 3.68 µM, the TGI [31] was 35.2 µM and the GI50 [34] was 1.92 µM. It also gave a TGI [34] of 3.81 µM, a GI50 [37] of 1.54 µM and a TGI [37] of 7.25 µM. For the same molecule, the GI50 [38] was 1.6 µM, the TGI [38] was 2.96 µM and the GI50 [40] was 3.27 µM. For the same molecule, the TGI [40] was 11.8 µM, the GI50 [41] was 1.91 µM and the TGI [41] was 3.71 µM. The GI50 [43] was 1.8 µM, the TGI [43] was 3.28 µM and the GI50 [44] was 1.71 µM. It also gave a TGI [44] of 3.49 µM, a GI50 [56] of 2.4 µM and a TGI [56] of 7.94 µM. It also gave a GI50 [46] of 3.11 µM, a TGI [46] of 13.9 µM and a GI50 [47] of 1.04 µM. It also gave a TGI [47] of 2.33 µM, a GI50 [48] of 1.27 µM and a TGI [48] of 7.19 µM. For the same molecule, the GI50 [51] was 1.67 µM, the TGI [51] was 3.04 µM and the GI50 [53] was 1.92 µM. For the same molecule, the TGI [53] was 3.48 µM, the GI50 [54] was 1.66 µM and the TGI [54] was 3.18 µM. It also gave a GI50 [55] of 1.38 µM and a TGI [55] of 2.85 µM.

From PubChem BioAssay (NCI)
